Data: PubChem BioAssay (NCI)
Where “and” joins values, the source holds several entries; their conditions need not be identical. Identical values can stand only once.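 Protocol summary: plate cells (96-well), add compound at 5 concentrations, incubate 48 h, interpolate endpoints linearly. At the GI50, growth is halved. TGI: concentration producing complete growth inhibition.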

Experiments:
Assay in all cases: inhibition of tumour cell growth, NCI panel, 48 h
SF-268 CNS = tested on: SF-268 CNS
KM12 colon = tested on: KM12 colon
NCI/ADR-RES ovarian = tested on: NCI/ADR-RES ovarian
TK-10 renal = tested on: TK-10 renal
LOX IMVI melanoma = tested on: LOX IMVI melanoma
CAKI-1 renal = tested on: CAKI-1 renal
K-562 leukemia = tested on: K-562 leukemia
HOP-92 NSCLC = tested on: HOP-92 NSCLC
M14 melanoma = tested on: M14 melanoma
CCRF-CEM leukemia = tested on: CCRF-CEM leukemia

| SMILES | GI50 (SF-268 CNS) | TGI (SF-268 CNS) | GI50 (KM12 colon) | TGI (KM12 colon) | GI50 (NCI/ADR-RES ovarian) | TGI (NCI/ADR-RES ovarian) | GI50 (TK-10 renal) | TGI (TK-10 renal) | GI50 (LOX IMVI melanoma) | TGI (LOX IMVI melanoma) | GI50 (CAKI-1 renal) | TGI (CAKI-1 renal) | GI50 (K-562 leukemia) | TGI (K-562 leukemia) | GI50 (HOP-92 NSCLC) | TGI (HOP-92 NSCLC) | GI50 (M14 melanoma) | TGI (M14 melanoma) | GI50 (CCRF-CEM leukemia) | TGI (CCRF-CEM leukemia) |
| --- | --- | --- | --- | --- | --- | --- | --- | --- | --- | --- | --- | --- | --- | --- | --- | --- | --- | --- | --- | --- |
| COc1ccc(-c2cc(-c3ccc(O)cc3)nc3nc(=S)[nH]c(N)c23)cc1 | 23.4 µM | 79.2 µM | 16.9 µM | 41.3 µM | 26.1 µM | 66.3 µM | 32.2 µM | 92.9 µM | 12 µM | 30.3 µM | 27.1 µM | 88.7 µM | 16.9 µM | > 100 µM | 5.15 µM | 36.4 µM | 19.7 µM | 35.4 µM |  |  |
| O=C(CSc1nc2ccc([N+](=O)[O-])cc2[nH]1)Nc1cccc(Cl)c1 | 3.04 µM | 21.8 µM | 3.1 µM | 13.8 µM | 2.41 µM | 9.13 µM | 3.31 µM | 11.8 µM | 3.05 µM | 13 µM | 2.3 µM | 10.4 µM | 2.74 µM | > 100 µM | 0.421 µM | 3.3 µM | 3.06 µM | 13.6 µM | 3.1 µM | > 100 µM |
| O=C(/C=C/c1ccccn1)c1ccccc1O | 2.53 µM | 7.02 µM | 1.55 µM | 3.04 µM | 2.87 µM | 9.07 µM | 2.28 µM | 4.95 µM | 1.85 µM | 4.43 µM | 1.58 µM | 3.21 µM | 2.09 µM | > 100 µM | 2.1 µM | 4.91 µM | 2 µM | 4.28 µM | 1.71 µM | 5.43 µM |
| O=C(O)CN(CC(=O)O)Cc1cc2c(cc1O)Oc1cc(O)c(CN(CC(=O)O)CC(=O)O)cc1C21OC(=O)c2ccccc21 |  | > 100 µM |  | > 100 µM |  | > 100 µM |  | > 100 µM |  | > 100 µM |  | > 100 µM |  | > 100 µM |  | > 100 µM |  | > 100 µM |  | > 100 µM |
| COc1ccccc1CNCCCN1C(=O)c2ccc3c4c(ccc(c24)C1=O)C(=O)N(CCCNCCCCNCCCCN)C3=O | 0.903 µM | 6.99 µM | 2.42 µM | 6.91 µM | 12.8 µM | > 100 µM | 3.71 µM | 51.7 µM | 0.941 µM | 4.76 µM | 3.98 µM | 46 µM | 1.02 µM | > 36.9 µM | 1.87 µM | 8.66 µM | 1.87 µM | 4.68 µM | 0.756 µM | > 33.4 µM |
| C=C1C(=O)O[C@H]2[C@H]1CC/C(COC(=O)/C=C\C(=O)NCc1ccc(Cn3c(=O)sn(-c4ccc(OC)cc4)c3=O)cc1)=C\CC[C@@]1(C)O[C@@H]21 | 0.693 µM | 1.37 µM | 0.884 µM | 1.81 µM | 1.11 µM | 4.32 µM | 0.917 µM | 1.67 µM | 0.36 µM | 1.09 µM | 0.291 µM | 0.997 µM | 0.603 µM | 50 µM | 0.587 µM | 1.36 µM | 0.603 µM | 1.36 µM | 0.174 µM | 4.27 µM |
| CN(C)c1ccc(/C=C(\C#N)c2cc3ccccc3n2C)cc1 | 2.18 µM | > 100 µM | 0.211 µM | > 100 µM | 0.0895 µM | > 100 µM | > 100 µM | > 100 µM | 0.425 µM | > 100 µM | 0.0856 µM | > 100 µM | 0.0407 µM | > 100 µM | 0.556 µM | > 23 µM | 0.075 µM | > 100 µM | 0.244 µM | > 100 µM |
| CC(C)c1ccc2c(N=Nc3ccc(S(N)(=O)=O)cc3)c(O)[nH]c2c1 | 7.52 µM | > 20.2 µM | 1.24 µM | > 25 µM | > 13.5 µM | > 25 µM | > 12.1 µM | > 24 µM | 9.01 µM | > 25 µM | 24.9 µM | > 25 µM | > 25 µM | > 25 µM | > 15.9 µM | > 25 µM | > 25 µM | > 25 µM | > 25 µM | > 25 µM |
| COC(=O)C(/C(=N/N)C(=O)Nc1ccc(C)c(C)c1)c1nc2ccc(Cl)cc2[nH]c1=O (centres undefined) |  | > 100 µM |  | > 100 µM |  | > 100 µM |  | > 100 µM |  | > 100 µM |  | > 100 µM |  | > 100 µM |  | > 100 µM |  | > 100 µM |  | > 100 µM |
| CCOc1cc(C=O)c2c(ccc3ccc(OC)c(OC)c32)c1OC |  | > 100 µM |  | > 100 µM |  | 81.5 µM |  | > 100 µM |  | > 100 µM |  | > 100 µM |  | > 100 µM |  | > 100 µM |  | > 100 µM |  | > 100 µM |
| CCCCCCCCCCCC1=NC(C)(C)CN1CCO | 6.68 µM | 20.3 µM | 2.85 µM | 7.57 µM | 13.9 µM | 29.5 µM | 10.8 µM | 28.9 µM | 1.97 µM | 4.65 µM | 4.57 µM | 18.9 µM | 2.44 µM | 5.57 µM | 1.29 µM | 8.11 µM | 1.92 µM | 3.74 µM | 3.54 µM | 18.4 µM |
| CCOCCc1c(O)nc(SC)[nH]c1=O | > 100 µM | > 100 µM | > 100 µM | > 100 µM | > 100 µM | > 100 µM | > 100 µM | > 100 µM | > 100 µM | > 100 µM | > 100 µM | > 100 µM | > 100 µM | > 100 µM | > 100 µM | > 100 µM | > 100 µM | > 100 µM | > 100 µM | > 100 µM |
| CC1(C)Cc2cccc(OCC(O)CN3CCN(c4ccc(F)cc4)CC3)c2O1 (centres undefined) | 18 µM | > 50 µM | 15.3 µM | > 50 µM | 12.2 µM | 45.6 µM | > 50 µM | > 50 µM | 23.8 µM | > 50 µM | 15.8 µM | 37.7 µM | 16.6 µM | > 50 µM | 8.15 µM | 31.4 µM | 7.37 µM | 15.1 µM |  |  |
| COc1ccc2c(CC(=O)O)cc(=O)oc2c1 |  | > 100 µM |  | > 100 µM |  | > 100 µM |  | > 100 µM |  | > 100 µM |  | > 100 µM |  | > 100 µM |  | > 100 µM |  | > 100 µM |  | > 100 µM |
| CCOC(=O)c1c[nH]c2c(OCc3ccccc3)c3ccccc3c(O)c2c1=O | 12.9 µM | 50.7 µM | 6.89 µM | > 84.5 µM | 10.9 µM | > 64.7 µM | 16 µM | 45.5 µM | 6.83 µM | 33 µM | 4.37 µM | 21.1 µM | 3.15 µM | > 39.1 µM | 27 µM | 93.5 µM | 11.3 µM | > 59.4 µM | 5.73 µM | > 100 µM |
| C/C(=N\Nc1ccc2ccccc2n1)c1ccccc1O |  | > 100 µM |  | > 100 µM |  | > 100 µM |  | > 100 µM |  | > 100 µM |  | > 100 µM |  | > 100 µM |  | > 100 µM |  | > 100 µM |  | > 29.4 µM |
| CS(=O)(=O)N1CCN(Cc2cc3nc(-c4cccc5[nH]ncc45)nc(N4CCOCC4)c3s2)CC1 | 1.59 µM and 0.625 µM | > 100 µM | 1.36 µM and 0.754 µM | > 100 µM | 1.76 µM and 1.44 µM | > 100 µM | 0.11 µM and 0.0949 µM | 0.789 µM and 0.74 µM | 0.456 µM and 0.32 µM | > 100 µM | 0.419 µM and 0.209 µM | 3.92 µM and > 3.95 µM | 3.91 µM and > 2.17 µM | > 100 µM | 0.0232 µM and 0.0547 µM | 0.197 µM and 0.508 µM | 2.13 µM and 0.438 µM | > 100 µM | 2.3 µM and 0.909 µM | > 100 µM |
| CC1(C)CC[C@]2(C(=O)n3ccnc3)CC[C@]3(C)[C@H](C(=O)C=C4[C@@]5(C)C=C(C#N)C(=O)C(C)(C)[C@@H]5CC[C@]43C)[C@@H]2C1 | 0.0164 µM | > 100 µM | < 0.0104 µM | < 0.0199 µM | < 0.01 µM | 0.0895 µM | < 0.0132 µM | < 0.0226 µM |  |  | < 0.01 µM | 0.0393 µM | < 0.01 µM | 0.13 µM | 0.0221 µM | 0.102 µM | 0.0287 µM | 0.196 µM | < 0.01 µM | 0.0438 µM |
| O=C1CSC(=S)N1c1ccc(F)cc1F |  | > 100 µM |  | > 100 µM |  | > 100 µM |  | > 100 µM |  | > 100 µM |  | > 100 µM |  |  |  | > 100 µM |  | > 100 µM |  | 76.4 µM |
| O=C(CCc1nnc(-c2c(Cl)cccc2Cl)o1)c1nc2ccccc2[nH]1 | 7.29 µM | 46.6 µM | 3.16 µM | 11 µM | 5.47 µM | > 100 µM | 16.4 µM | > 100 µM | 4.03 µM | 39.8 µM | 3.49 µM | 41.1 µM |  |  | 1.77 µM | 15.8 µM | 5.86 µM | 31.5 µM | 4.86 µM | 66 µM |
| CN(C)CCCNC(=O)c1cc(NC(=O)CCNC(=O)c2ccc3c(c2)C(=O)c2ccccc2C3=O)cn1C | 71 µM | > 100 µM | 40.8 µM | > 100 µM | > 100 µM | > 100 µM | > 100 µM | > 100 µM |  |  | > 100 µM | > 100 µM | > 100 µM | > 100 µM | 58.9 µM | > 100 µM | > 100 µM | > 100 µM | 64.1 µM | > 100 µM |
